Experimental data as given in patent US20020183937A1, “Method for the generation of proteins with new enzymatic function” (priority 2001, published 2002).
Values belong to the compound of their own block, whether it stands above or below them.

Key:
PZD2 = molecular target: T1, PZD2 (Escherichia coli, UniProt P0AA25, D27I/F13A/L18H/Y71A); assay: Inhibition of PZD2 catalyzed PNPA hydrolysis; type: biochemical, E. coli
T1 construct: made in house; host or cells: E. coli BL21 (DE3), vector pET-11a
Excerpt: With this in mind, we assayed the inhibitory effects of p-nitrophenol glycerol (PNPG), a highly soluble compound with structural similarity to PNPA.

[1] = Steady state kinetics of PNPA hydrolysis by protozymes; type: biochemical; conditions: qualitative statement
[2] = Burst phase PNPA hydrolysis assay at high substrate concentration; conditions: 1.6 mM PNPA, 4 μM protein (FIG. 7)
Procedure: PZD2 was dialyzed extensively against 10 mM sodium phosphate buffer at pH 6.95. Kinetic experiments at 22° C. were started by the addition of substrate dissolved in acetonitrile to buffer solution with and without PZD2 (final protein concentration of 4 μM). Protein concentration was determined by UV absorbance in 6M guanidinium hydrochloride assuming an extinction coefficient of 12400 M^−1cm^−1 at 280 nm. Product concentration was determined by the change in absorbance at 400.5 nm assuming an extinction coefficient for deprotonated PNP of 19700 M^31 1cm^−1. Final acetronitrile concentration was 1% for all experiments. The steady state rate of hydrolysis by PZD2 was corrected for the buffer rate. Burst phase hydrolysis assays were performed at a substrate concentration of 1.6 mM. Protein concentration was 4 μM, with the exception of wild type thioredoxin. Wild type thioredoxin was assayed at 50 μM to improve signal to noise and extrapolated to a protein concentration of 4 μM. The dead time for this experiment was approximately 30 seconds.

T1 sequence (P0AA25 2-109 F13A/L18H/D27I/Y71A): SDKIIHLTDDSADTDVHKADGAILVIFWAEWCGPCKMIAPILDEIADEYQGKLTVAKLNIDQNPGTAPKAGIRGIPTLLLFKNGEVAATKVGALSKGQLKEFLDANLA

Compound: O=[N+]([O-])c1ccc(OP(=O)(O)O)cc1 [p-nitrophenyl phosphate]
inhibition (PZD2; concentrations up to 20 mM): did not show detectable inhibition

enzyme-like activity toward PNPA hydrolysis [1]: essentially catalytically inert
enzyme-like activity toward PNPA hydrolysis ([1]; listed as wild type protein): does not exhibit enzyme-like activity
Compound: Wild type thioredoxin: thioredoxin protein from E. coli, scaffold; wild type sequence, H at position 6 with no binding site mutations
catalytic activity (PNPA hydrolysis) [2]: essentially inactive

Compound: p-nitrophenol glycerol [PNPG]
Ki (PZD2; fixed substrate concentration, read-out: K1 (Dixon analysis of inhibition)): 20 mM
mode of inhibition (double reciprocal analysis) (PZD2; presence and absence of inhibitor, 10 mM PNPG (FIG. 9)): competitive inhibition
